Results taken from US20110218244A1, “CREATINE ß-ALANINATE: A NOVEL SALT FOR INCREASING […] PERFORMANCE” (priority 2009, published 2011).
Read-outs that look alike come from different tables or passages of the source.

Assays:
individuals = details: cited from earlier work
[1] = system: intramuscular carnosine content; details: after 10 week supplementation; cited from earlier work

For `NCCC(=O)N[C@@H](Cc1cnc[nH]1)C(=O)O` [carnosine, β-alanyl-L-histidine], the paraesthesia symptoms (individuals; greater quantities, ingested as dipeptides in meat) is listed as “do not cause the same symptoms”.

In the case of `NCCC(=O)O` [β-alanine, 3-Aminopropanoic acid], the “increase in intramuscular carnosine content, average” value [1] is given as 80%, the “amount above which ingestion causes paraesthesia” value (individuals; in solution or as powder in gelatin capsules) is given as “above 10 mg per kg body weight” and the “time at which paraesthesia begins after oral administration” value (individuals; oral) is given as “about 20 minutes”.

For anserine, the paraesthesia symptoms (individuals; in vivo) is listed as “do not cause the same symptoms”.

In the case of creatine β-alaninate, the “more β-alanine administrable before eliciting symptoms of paraesthesia, compared with β-alanine alone” value (human subjects; administered as creatine β-alaninate) is reported as “roughly 100%”, the “single dose administered before the onset of parasthesia was noted” value (human subjects; oral, gelatin capsules, human subjects) is reported as “up to 55.00 mg/kg” and the “equivalent β-alanine dose before the onset of parasthesia” value (human subjects; salt mass consists of about 40.45% β-alanine) is reported as “about 22.25 mg/kg”.
